Data published in article PMC6149774, “Inhibition by Commercial Aminoglycosides of Human Connexin Hemichannels Expressed in Bacteria” (Molecules : A Journal of Synthetic Chemistry and Natural …, 2017).

Experiments:
LB2003 cells = test: Antibiotic effect on growth of LB2003 cells in KLM; type: cell-based, Escherichia coli; settings: 100 μM, cells grown in KLM
Description: The absence of antibiotic effect in the LB2003-pREP4 cells was assayed at an AG concentration of 100 μM in cells grown in KLM (Figure 5).
All drugs were used at a concentration of 100 μM. The cells were grown in K^+ liquid medium (KLM). […] Data were normalized to the OD600 of LB2003-pREP4 cells in the absence of drug (5.7 ± 0.1).

[1] = test system: Cx26, Cx43, and Cx46 hemichannels; parameters: method as in PMID 25585383, PMID 27789753; settings: cited from earlier work
human Cx26 hemichannels = biological target: T1, human Cx26 hemichannels (Homo sapiens, UniProt P29033); test: Cx26-dependent growth complementation assay in LB2003 cells; type: cell-based; settings: for Reduction of Cx26-dependent growth complementation: 100 μM aminoglycoside
T1 construct: Details of the human Cx26, Cx43, and Cx46 DNAs used to transform LB2003 cells have been published; expressed in transfected cells; host or cells: E. coli LB2003 (with pREP4), IPTG-induced from pQE60
Description: (§1) We then tested all AGs in Figure 4 for inhibition of connexin-dependent growth in AG-resistant LB2003 cells transformed with the pREP4 plasmid.
(§2) Basically, freshly prepared competent LB2003 containing the pREP4 plasmid were transformed with pQE60 (empty plasmid; negative control), pQE-Cx26 (human Cx26 DNA into pQE60), pQE-Cx43 (human Cx43 into pQE60) or pQE-Cx46 (human Cx46 into pQE60). After growing overnight in Luria-Bertani (LB) medium (BD, Franklin Lakes, NJ, USA) supplemented with 100 mM KCl (to allow growth) and 0.4 mg/mL ampicillin, the cells were washed four times with NLM, to remove residual potassium from the LB medium, and were resuspended in complementation growth medium to an OD600 of 0.2. NLM contained 46 mM Na2HPO4, 23 mM NaH2PO4, 8 mM (NH4)2SO4, 0.4 mM MgSO4, 0.012 mM FeSO4, 1 mM sodium citrate, 44 mM glucose, and 0.006 mM thiamine hydrochloride, pH 7.0. KLM was identical to NLM except for the equimolar replacement of Na^+ with K^+. For growth-complementation by Cx26, Cx43, and Cx46 in low-[K^+] medium we used NLM + 4 mM KCl, NLM + 8 mM KCl, and NLM + 16 mM KCl, respectively. Expression of Cx26 was induced with 0.5 mM IPTG (GoldBio, St. Louis, MO, USA) at the time of dilution to OD600 = 0.2. For growth-complementation by Cx43 and Cx46, we used 10 µM IPTG. Transformed cells in the appropriate growth medium were seeded in 24- or 96-well plates, and the plates were incubated at 30 °C, with shaking at 250 and 500 rpm, respectively. OD600 was measured after 18 h manually for the 24-well plates or in a plate reader for the 96-well plates (Falcon 353072, Corning Inc., Corning, NY, USA). The initial OD600 = 0.2 was subtracted for growth calculations.

[2] = test system: Cx26, Cx43, and Cx46 hemichannels; test: Connexin-dependent growth complementation assay, all connexin groups together; type: cell-based, human; settings: 100 μM aminoglycoside, AG-resistant LB2003 cells with pREP4
Description: The absence of antibiotic effect in the LB2003-pREP4 cells was assayed at an AG concentration of 100 μM in cells grown in KLM (Figure 5). […] We then tested all AGs in Figure 4 for inhibition of connexin-dependent growth in AG-resistant LB2003 cells transformed with the pREP4 plasmid.
Basically, freshly prepared competent LB2003 containing the pREP4 plasmid were transformed with pQE60 (empty plasmid; negative control), pQE-Cx26 (human Cx26 DNA into pQE60), pQE-Cx43 (human Cx43 into pQE60) or pQE-Cx46 (human Cx46 into pQE60). After growing overnight in Luria-Bertani (LB) medium (BD, Franklin Lakes, NJ, USA) supplemented with 100 mM KCl (to allow growth) and 0.4 mg/mL ampicillin, the cells were washed four times with NLM, to remove residual potassium from the LB medium, and were resuspended in complementation growth medium to an OD600 of 0.2. NLM contained 46 mM Na2HPO4, 23 mM NaH2PO4, 8 mM (NH4)2SO4, 0.4 mM MgSO4, 0.012 mM FeSO4, 1 mM sodium citrate, 44 mM glucose, and 0.006 mM thiamine hydrochloride, pH 7.0. KLM was identical to NLM except for the equimolar replacement of Na^+ with K^+. For growth-complementation by Cx26, Cx43, and Cx46 in low-[K^+] medium we used NLM + 4 mM KCl, NLM + 8 mM KCl, and NLM + 16 mM KCl, respectively. […] OD600 was measured after 18 h manually for the 24-well plates or in a plate reader for the 96-well plates (Falcon 353072, Corning Inc., Corning, NY, USA). […]

human Cx43 hemichannels = biological target: T2, human Cx43 hemichannels (Homo sapiens, UniProt P17302); test: Cx43-dependent growth complementation assay in LB2003 cells; type: cell-based; settings: for IC50: LB2003-pREP4 cells, NLM + 8 mM KCl, 10 µM IPTG, OD600 after 18 h, mean ± SEM
T2 construct: Details of the human Cx26, Cx43, and Cx46 DNAs used to transform LB2003 cells have been published; expressed in transfected cells; host or cells: E. coli LB2003 (with pREP4), IPTG-induced from pQE60
T2 sequence (P17302 whole entry): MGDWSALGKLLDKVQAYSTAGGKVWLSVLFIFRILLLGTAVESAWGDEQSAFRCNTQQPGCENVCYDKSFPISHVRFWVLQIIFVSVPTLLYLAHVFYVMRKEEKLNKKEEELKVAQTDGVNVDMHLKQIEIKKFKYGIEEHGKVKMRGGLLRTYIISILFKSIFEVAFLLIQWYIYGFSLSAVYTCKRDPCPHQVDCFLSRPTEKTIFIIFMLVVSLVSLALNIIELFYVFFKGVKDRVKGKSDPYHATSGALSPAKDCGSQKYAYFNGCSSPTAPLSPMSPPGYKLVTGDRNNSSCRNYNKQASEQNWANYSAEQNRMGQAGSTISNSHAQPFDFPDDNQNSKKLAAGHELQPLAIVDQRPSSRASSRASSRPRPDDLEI
Description: as §1, §2

human Cx46 hemichannels = biological target: T3, human Cx46 hemichannels (Homo sapiens, UniProt Q9Y6H8); test: Cx46-dependent growth complementation assay in LB2003 cells; type: cell-based; settings: for IC50: LB2003-pREP4 cells, NLM + 16 mM KCl, 10 µM IPTG, OD600 after 18 h, mean ± SEM
T3 construct: Details of the human Cx26, Cx43, and Cx46 DNAs used to transform LB2003 cells have been published; expressed in transfected cells; host or cells: E. coli LB2003 (with pREP4), IPTG-induced from pQE60
Excerpt: The first task is accomplished through the use of defined media. We use Na^+ liquid medium (NLM) and K^+ liquid medium (KLM). NLM is a K^+-free phosphate-buffered medium (see Materials and Methods), whereas KLM is a K^+-rich medium that has the composition of NLM, except for the equimolar replacement of Na^+ with K^+. […] By mixing NLM and KLM it is easy to find a range of low [K^+]s where LB2003 cells expressing connexins grow. To optimize the signal-to-noise ratio we identified the “low” [K^+] at which the connexin-expressing cells grow to the highest absorbance measured at 600 nm (OD600), and then tested the dependence of the growth on the concentration of the expression inducer, isopropyl-β-D-thiogalactopyranoside (IPTG). This is important because the optimal signal-to-noise ratio depends on a balance between sufficient permeability to allow K^+ uptake through HCs and too many active HCs, which inhibits growth as a result of depolarization of the inner membrane and/or unbalanced shifts of ions and metabolites. In the case of Cx26, optimal growth is achieved with 4 mM K^+ and 500 μM IPTG, but for Cx43, 8 mM K^+ and 10 μM IPTG work best. From initial trials, we identified 16 mM K^+ and 10 μM IPTG as the best conditions for the Cx46 growth complementation assay.
This aminoglycoside 3'-phosphotransferase inactivates the AGs in Figure 4 by phosphorylation, allowing us to test for inhibition of connexin-dependent growth complementation without interference by the AG antibiotic effect. The absence of antibiotic effect in the LB2003-pREP4 cells was assayed at an AG concentration of 100 μM in cells grown in KLM (Figure 5). […] We then tested all AGs in Figure 4 for inhibition of connexin-dependent growth in AG-resistant LB2003 cells transformed with the pREP4 plasmid.
Briefly, pQE60 plasmids containing the connexin DNAs and plasmid pREP4 were used for transformation of E. coli LB2003 cells (generously provided by Dr. E.P. Bakker, Osnabrück University, Osnabrück, Germany). The pQE60 plasmids confer resistance to ampicillin, and pREP4 confers resistance to the AGs used in this study. LB2003 cells are missing three key K^+ transporters (Δtrk, Δkup, and Δkdp strains) and as a result cannot grow in low-[K^+] media [22, 23, 25]. Transformed LB2003 cells were stored as a 25% glycerol stock at −80 °C.
Basically, freshly prepared competent LB2003 containing the pREP4 plasmid were transformed with pQE60 (empty plasmid; negative control), pQE-Cx26 (human Cx26 DNA into pQE60), pQE-Cx43 (human Cx43 into pQE60) or pQE-Cx46 (human Cx46 into pQE60).

HCs = test system: HCs; parameters: method as in PMID 26769242, PMID 25237294; settings: mammalian cells and frog oocytes; cited from earlier work
GJCs = test system: GJCs; parameters: method as in PMID 26769242, PMID 25237294; settings: cited from earlier work
[3] = LB2003-pREP4 cells, NLM + 4 mM KCl, 0.5 mM IPTG, OD600 after 18 h, mean ± SEM

kanamycin A
Growth of AG-sensitive LB2003 cells (no pREP4) (LB2003 cells): prevented growth | Effect on HCs in LB2003 cell growth assay [1]: inhibited HCs

CN[C@@H]1[C@@H](O)[C@@H](O[C@@H]2[C@@H](O)[C@H](O[C@H]3O[C@H]([C@@H](C)O)[C@@H](O)[C@H](O)[C@H]3N)[C@@H](N)C[C@H]2N)OC[C@]1(C)O [Geneticin, geneticin]
IC50 (human Cx26 hemichannels; IC50 of Cx26-dependent complementation (Figure 6), Figure 6A, fit of Hill's equation): 0.436 µM

NC[C@H]1O[C@H](O[C@H]2[C@H](O[C@@H]3O[C@H](CO)[C@@H](O)[C@H]3O)[C@@H](O)[C@H](N)C[C@@H]2N)[C@H](N)[C@@H](O)[C@@H]1O [ribostamycin]
Inhibition of connexin-dependent growth [2]: only a marginal effect | Reduction of Cx26-dependent growth complementation (human Cx26 hemichannels): 35 ± 3% | Effect on Cx43-dependent growth complementation (inhibition) (human Cx43 hemichannels; 100 μM aminoglycoside): −8 ± 5%

NC[C@H]1O[C@H](O[C@H]2[C@H](O)[C@@H](O[C@H]3O[C@H](CO)[C@@H](O)[C@H](N)[C@H]3O)[C@H](N)C[C@@H]2N)[C@H](N)[C@@H](O)[C@@H]1O [Kanamycin B, kanamycin B]
IC50 (human Cx46 hemichannels): 175 ± 9 µM | IC50 ratio relative to Cx26 for Cx46 (human Cx46 hemichannels; isoform selectivity, Cx46 IC50 / Cx26 IC50): ~ 50 | IC50 (human Cx26 hemichannels; [3]): 3.6 ± 0.9 µM | IC50 (human Cx43 hemichannels): 24 ± 2 µM | IC50 ratio relative to Cx26 for Cx43 (human Cx43 hemichannels; isoform selectivity, Cx43 IC50 / Cx26 IC50): ~ 7

CNC(C)C1CCC(N)C(OC2C(N)CC(N)C(OC3OCC(C)(O)C(NC)C3O)C2O)O1 (stereo not drawn) [gentamicin]
Effect on HCs (HCs): inhibits HCs reversibly | Effect on GJCs (GJCs): does not affect GJCs

NC[C@@H]1O[C@H](O[C@H]2[C@@H](O)[C@H](O[C@@H]3[C@@H](O)[C@H](N)C[C@H](N)[C@H]3O[C@H]3O[C@H](CO)[C@@H](O)[C@H](O)[C@H]3N)O[C@@H]2CO)[C@H](N)[C@@H](O)[C@@H]1O [Paromomycin, paromomycin]
Inhibition of Cx46-dependent growth complementation (human Cx46 hemichannels; 200 μM aminoglycoside): 37 ± 4% | IC50 (human Cx46 hemichannels): > 200 µM | Reduction of Cx26-dependent growth complementation (human Cx26 hemichannels): ~ 80% | IC50 (human Cx26 hemichannels; [3]): 42 ± 9 µM | IC50 (human Cx43 hemichannels): 201 ± 17 µM
